Key:
adult houseflies = assay: Test Example 2: housefly knock down, spray in cubic glass chamber; format: in vivo; details: active ingredient concentration 0.00625%, 0.7 ml sprayed, counted 10 minutes after spraying, repeated twice
Experimental: The formulation of the sample compound obtained in Formulation Example 7 was diluted with dichloromethane/deodorized kerosene=1/9 mixed solution so that the active ingredient concentration was 0.00625%, to prepare a test solution.
Ten adult houseflies (4 or 5 males and 4 or 5 females each) were left in a cubic glass chamber (70 cm at each side), and 0.7 ml of the test solution was sprayed through a small window at the side of the chamber using a spray gun at a spraying pressure of 0.9 kg/cm^2. 10 minutes after spraying, the number of knocked-down insects was counted (repeated twice).

[1] = system: German cockroach (Blattella germanica); assay: Test Example 3: German cockroach knock down, spray in test chamber; format: in vivo; details: active ingredient concentration 0.00625%, 1.5 ml sprayed, counted 1 minutes after spraying, repeated twice
Experimental: The formulation of the sample compound obtained in Formulation Example 7 was diluted with dichloromethane/deodorized kerosene=1/9 mixed solution so that the active ingredient concentration was 0.00625%, to prepare a test medicinal solution.
A container (8.75 cm in diameter, 7.5 cm in height, bottom covered 16-mesh iron net and inside wall painted butter for preventing tested pill bugs to escape) having 10 German cockroach (5 males and 5 females, Blattella germanica) therein was set on the bottom of a test chamber (46 cm×46 cm, height: 70 cm). From a height of 60 cm above the upper surface of the container, 1.5 ml of the test solution was sprayed using a spray gun at a spraying pressure of 0.4 kg/cm^2. After 30 seconds, the German cockroach were taken out and put into a clean plastic cup having 8.2 cm in diameter. The lid having holes was covered on the cup. 1 minutes after spraying, the number of knocked-down insects was counted (repeated twice).

## C#CCN1CC(=O)N(COC(=O)[C@@H]2[C@@H](/C=C(\C)C=NOC)C2(C)C)C1=O [present compound (1), 2,5-dioxo-3-(2-propynyl)imidazolidin-1-ylmethyl (1R)-trans-3-[(E)-3-methoxyimino-2-methyl-1-propenyl]-2,2-dimethylcyclopropanecarboxylate]
Adult houseflies
  knock down ratio of sample insects: 100%
[1]
  knock down ratio of sample insects: 100%

## C#CCc1ccc(COC(=O)[C@@H]2[C@@H](/C=C(\C)C=NOC)C2(C)C)o1 [comparative compound (B), 5-(2-propynyl)furan-2-ylmethyl (1R)-trans-3-[(E)-3-methoxyimino-2-methyl-1-propenyl]-2,2-dimethylcyclopropanecarboxylate]
[1]
  knock down ratio of sample insects: 0%

## C#CCN1CC(=O)N(COC(=O)[C@@H]2[C@@H](C=C(C)C)C2(C)C)C1=O [comparative compound (A), 2,5-dioxo-3-(2-propynyl)imidazolidine-1-ylmethyl (1R)-trans-2,2-dimethyl-3-(2-methyl-1-propenyl)cyclopropane carboxylate]
Adult houseflies
  knock down ratio of sample insects: 42%

Source: patent US8039499B2, “Ester compound and its use” (Sumitomo Chemical Company, Limited, priority 2006, dated 2011)
